Experimental data: US10052320B2, “Substituted quinoxalines as FGFR kinase inhibitors” (ASTEX THERAPEUTICS LIMITED, priority 2011, dated 2018)
Like-named read-outs stand apart in the source and are kept apart here.

Assays:
KDR (h) (VEGFR2) = KDR (h) (VEGFR2) (Homo sapiens, UniProt P35968); experiment: KDR (VEGFR2) (enzymatic assay), TR-FRET; type: biochemical
Procedure: KDR (VEGFR2) (Enzymatic Assay)
In a final reaction volume of 30 μL, KDR (h) (150 ng/ml) was incubated with 50 mM HEPES pH 7.5, 6 mM MnCl2, 1 mM DTT, 0.1 mM Na3VO4, 0.01% Triton-X-100, 500 nM Btn-Flt3 and 3 μM ATP in the presence of compound (1% DMSO final). After incubation for 120 minutes at room temperature the reaction was stopped with 2.27 nM EU-anti P-Tyr, 7 mM EDTA, 31.25 nM SA-XL-665 and 0.02% BSA which was present for 60 minutes at room temperature. Time-Resolved Fluorescence Resonance Energy Transfer (TR-FRET) signal (ex340 nm. Em 620 nm, em 655 nm) was measured afterwards and results are expressed in RFU (Relative Fluorescence Units).

[1] = target: T1, Ba/F3-Flt3-transfected cells (Homo sapiens, UniProt P36888, cells depend on it, form not given); experiment: Ba/F3-Flt3 (minus IL3) cellular proliferation assay, Alamar Blue; type: cell-based
T1 sequence (P36888 1-993): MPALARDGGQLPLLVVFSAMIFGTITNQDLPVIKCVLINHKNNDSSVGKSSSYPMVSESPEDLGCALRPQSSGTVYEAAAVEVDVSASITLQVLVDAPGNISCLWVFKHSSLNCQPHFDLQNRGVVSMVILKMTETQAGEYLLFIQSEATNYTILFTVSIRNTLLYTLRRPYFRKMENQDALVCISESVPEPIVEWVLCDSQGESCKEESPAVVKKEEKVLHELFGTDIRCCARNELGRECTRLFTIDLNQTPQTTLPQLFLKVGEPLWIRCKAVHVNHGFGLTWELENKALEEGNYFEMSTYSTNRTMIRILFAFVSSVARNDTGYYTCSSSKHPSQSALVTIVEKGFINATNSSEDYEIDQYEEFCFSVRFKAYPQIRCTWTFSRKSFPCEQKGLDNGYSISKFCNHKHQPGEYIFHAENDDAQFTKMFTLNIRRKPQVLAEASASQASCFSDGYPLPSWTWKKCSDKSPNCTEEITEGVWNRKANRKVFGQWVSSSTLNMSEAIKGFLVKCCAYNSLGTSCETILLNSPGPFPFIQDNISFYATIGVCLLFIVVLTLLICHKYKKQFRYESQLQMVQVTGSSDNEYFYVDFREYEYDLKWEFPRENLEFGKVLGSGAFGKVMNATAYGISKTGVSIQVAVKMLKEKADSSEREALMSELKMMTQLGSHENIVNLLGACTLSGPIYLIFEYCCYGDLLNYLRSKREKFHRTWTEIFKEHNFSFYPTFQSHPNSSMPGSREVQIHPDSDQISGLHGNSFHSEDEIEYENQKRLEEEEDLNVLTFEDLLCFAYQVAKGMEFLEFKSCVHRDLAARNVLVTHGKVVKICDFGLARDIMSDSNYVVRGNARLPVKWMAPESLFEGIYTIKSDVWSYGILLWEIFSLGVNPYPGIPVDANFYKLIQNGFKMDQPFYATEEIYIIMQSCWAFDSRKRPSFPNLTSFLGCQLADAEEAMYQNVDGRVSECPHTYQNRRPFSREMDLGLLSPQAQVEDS
Procedure: (§1) Ba/F3-Flt3 (Minus IL3 or Plus IL3) (Cellular Proliferation Assay)
Cells were put in an incubator at 37° C. and 5% CO2. After 24 hours, 10 μl of Alamar Blue solution (0.5 mM K3Fe(CN)6, 0.5 mM KaFe(CN)6, 0.15 mM Resazurin and 100 mM Phosphate Buffer) was added to the wells, incubated for 4 hours at 37° C. and 5% CO2 before RFU's (Relative Fluorescence Units) (ex. 540 nm., em. 590 nm.) were measured in a flurorescence plate reader. […]
(§2) In a 96 well plate, 180 μl cell culture medium (phenol red free RPMI-1640, 10% FBS, 2 mM L-Glutamine and 50 μg/ml Gentamycin) containing 10000 cells per well of Ba/F3-Flt3-transfected cells were pipette and 20 μl of compound dilution in DMSO was added. Cells were put in an incubator at 37° C. and 5% CO2. After 24 hours, 40 μl of Alamar Blue solution (0.5 mM K3Fe(CN)6, 0.5 mM KaFe(CN)6, 0.15 mM Resazurin and 100 mM Phosphate Buffer) was added to the wells, incubated for 4 hours at 37° C. and 5% CO2 before RFU's (Relative Fluorescence Units) (ex. 540 nm., em. 590 nm.) were measured in a flurorescence plate reader.

[2] = tested on: Ba/F3-Flt3-transfected cells in the presence of 10 ng/ml murine IL3; experiment: Ba/F3-Flt3 (plus IL3) cellular proliferation counterscreen, Alamar Blue; type: cell-based; conditions: Mus musculus, read-out: BAF3-FLT3 (PLUS IL3) 96 well pIC50 (converted)
[3] = target: Ba/F3-KDR-transfected cells (Homo sapiens, UniProt P35968); experiment: Ba/F3-KDR (minus IL3) cellular proliferation assay, Alamar Blue; type: cell-based
Procedure: Ba/F3-KDR (Minus IL3 or Plus IL3) (Cellular Proliferation Assay)
as §2, with “a 384” for “a 96”, “plate, 100 nl of compound dilution in DMSO was sprayed before adding 50” for “plate, 180”, “containing 20000” for “containing 10000”, “of Ba/F3-KDR-transfected cells.” for “of Ba/F3-Flt3-transfected cells were pipette and 20 μl of compound dilution in DMSO was added.”, “hours, 10” for “hours, 40”
(§3) As a counterscreen the same experiment was performed in the presence of 10 ng/ml murine IL3.
as §2, with “Ba/F3-KDR-transfected” for “Ba/F3-Flt3-transfected”, “CO2” for “CO2 before”

[4] = tested on: Ba/F3-FGFR1-transfected cells in the presence of 10 ng/ml murine IL3; experiment: Ba/F3-FGFR1 (plus IL3) cellular proliferation counterscreen, Alamar Blue; type: cell-based; conditions: Mus musculus; plus IL3, 384 well; read-out: BAF3-FGFR 1 (PLUS IL3) 384 well pIC50 (converted)
Procedure: Ba/F3-FGFR1 (Minus IL3 or Plus IL3) (Cellular Proliferation Assay)
as §2, with “a 384” for “a 96”, “plate, 100 nl of compound dilution in DMSO was sprayed before adding 50” for “plate, 180”, “containing 20000” for “containing 10000”, “of Ba/F3-FGFR1-transfected cells.” for “of Ba/F3-Flt3-transfected cells were pipette and 20 μl of compound dilution in DMSO was added.”, “hours, 10” for “hours, 40”
as §3
as §2, with “Ba/F3-FGFR1-transfected” for “Ba/F3-Flt3-transfected”

[5] = tested on: Ba/F3-Flt3-transfected cells in the presence of 10 ng/ml murine IL3; experiment: Ba/F3-Flt3 (plus IL3) cellular proliferation counterscreen, Alamar Blue; type: cell-based; conditions: Mus musculus; plus 10 ng/ml murine IL3; read-out: BAF3-FLT3 (PLUS IL3) 384 well pIC50 (converted)
Procedure: as §1
as §2, with “a 384” for “a 96”, “plate, 100 nl of compound dilution in DMSO was sprayed before adding 50” for “plate, 180”, “containing 20000” for “containing 10000”, “Ba/F3-Flt3-transfected cells.” for “Ba/F3-Flt3-transfected cells were pipette and 20 μl of compound dilution in DMSO was added.”, “hours, 10” for “hours, 40”
as §3, §2

Sequence of KDR (h) (VEGFR2) (P35968 20-1356): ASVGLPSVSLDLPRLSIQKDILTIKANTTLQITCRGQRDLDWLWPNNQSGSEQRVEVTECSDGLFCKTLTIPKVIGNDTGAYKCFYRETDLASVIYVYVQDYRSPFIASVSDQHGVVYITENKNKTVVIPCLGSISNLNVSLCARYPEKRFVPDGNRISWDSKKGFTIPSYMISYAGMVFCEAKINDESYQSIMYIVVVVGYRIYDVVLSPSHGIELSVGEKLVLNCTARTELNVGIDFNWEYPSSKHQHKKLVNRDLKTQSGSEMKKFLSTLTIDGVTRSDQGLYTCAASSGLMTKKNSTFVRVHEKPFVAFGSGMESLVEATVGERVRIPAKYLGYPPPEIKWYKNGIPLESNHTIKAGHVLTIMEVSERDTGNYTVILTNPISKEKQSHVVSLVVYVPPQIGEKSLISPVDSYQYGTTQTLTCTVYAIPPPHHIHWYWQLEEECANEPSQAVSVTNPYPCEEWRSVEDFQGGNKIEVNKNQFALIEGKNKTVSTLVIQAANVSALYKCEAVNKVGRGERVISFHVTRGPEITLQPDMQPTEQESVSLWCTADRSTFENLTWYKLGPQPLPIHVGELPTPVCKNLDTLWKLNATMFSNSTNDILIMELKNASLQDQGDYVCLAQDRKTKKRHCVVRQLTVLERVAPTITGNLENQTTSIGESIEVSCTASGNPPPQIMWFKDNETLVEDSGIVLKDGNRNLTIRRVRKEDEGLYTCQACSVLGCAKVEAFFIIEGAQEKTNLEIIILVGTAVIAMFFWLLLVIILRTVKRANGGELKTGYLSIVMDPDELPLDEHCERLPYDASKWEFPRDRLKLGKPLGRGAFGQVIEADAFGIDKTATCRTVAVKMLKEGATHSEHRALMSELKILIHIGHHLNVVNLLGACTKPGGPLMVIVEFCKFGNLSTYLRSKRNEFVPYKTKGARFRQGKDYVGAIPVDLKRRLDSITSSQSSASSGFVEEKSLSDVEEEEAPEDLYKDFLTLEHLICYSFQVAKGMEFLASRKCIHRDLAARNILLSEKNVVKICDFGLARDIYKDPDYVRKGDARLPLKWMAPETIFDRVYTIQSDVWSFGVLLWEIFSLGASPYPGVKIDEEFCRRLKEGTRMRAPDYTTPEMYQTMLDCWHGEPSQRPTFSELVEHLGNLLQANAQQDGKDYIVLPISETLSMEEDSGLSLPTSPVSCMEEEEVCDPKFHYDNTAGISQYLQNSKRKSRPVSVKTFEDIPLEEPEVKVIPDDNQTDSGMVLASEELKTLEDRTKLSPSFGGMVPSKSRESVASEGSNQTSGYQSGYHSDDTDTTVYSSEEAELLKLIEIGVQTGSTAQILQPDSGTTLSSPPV
Sequence of Ba/F3-KDR-transfected cells (P35968 whole entry, change not shown): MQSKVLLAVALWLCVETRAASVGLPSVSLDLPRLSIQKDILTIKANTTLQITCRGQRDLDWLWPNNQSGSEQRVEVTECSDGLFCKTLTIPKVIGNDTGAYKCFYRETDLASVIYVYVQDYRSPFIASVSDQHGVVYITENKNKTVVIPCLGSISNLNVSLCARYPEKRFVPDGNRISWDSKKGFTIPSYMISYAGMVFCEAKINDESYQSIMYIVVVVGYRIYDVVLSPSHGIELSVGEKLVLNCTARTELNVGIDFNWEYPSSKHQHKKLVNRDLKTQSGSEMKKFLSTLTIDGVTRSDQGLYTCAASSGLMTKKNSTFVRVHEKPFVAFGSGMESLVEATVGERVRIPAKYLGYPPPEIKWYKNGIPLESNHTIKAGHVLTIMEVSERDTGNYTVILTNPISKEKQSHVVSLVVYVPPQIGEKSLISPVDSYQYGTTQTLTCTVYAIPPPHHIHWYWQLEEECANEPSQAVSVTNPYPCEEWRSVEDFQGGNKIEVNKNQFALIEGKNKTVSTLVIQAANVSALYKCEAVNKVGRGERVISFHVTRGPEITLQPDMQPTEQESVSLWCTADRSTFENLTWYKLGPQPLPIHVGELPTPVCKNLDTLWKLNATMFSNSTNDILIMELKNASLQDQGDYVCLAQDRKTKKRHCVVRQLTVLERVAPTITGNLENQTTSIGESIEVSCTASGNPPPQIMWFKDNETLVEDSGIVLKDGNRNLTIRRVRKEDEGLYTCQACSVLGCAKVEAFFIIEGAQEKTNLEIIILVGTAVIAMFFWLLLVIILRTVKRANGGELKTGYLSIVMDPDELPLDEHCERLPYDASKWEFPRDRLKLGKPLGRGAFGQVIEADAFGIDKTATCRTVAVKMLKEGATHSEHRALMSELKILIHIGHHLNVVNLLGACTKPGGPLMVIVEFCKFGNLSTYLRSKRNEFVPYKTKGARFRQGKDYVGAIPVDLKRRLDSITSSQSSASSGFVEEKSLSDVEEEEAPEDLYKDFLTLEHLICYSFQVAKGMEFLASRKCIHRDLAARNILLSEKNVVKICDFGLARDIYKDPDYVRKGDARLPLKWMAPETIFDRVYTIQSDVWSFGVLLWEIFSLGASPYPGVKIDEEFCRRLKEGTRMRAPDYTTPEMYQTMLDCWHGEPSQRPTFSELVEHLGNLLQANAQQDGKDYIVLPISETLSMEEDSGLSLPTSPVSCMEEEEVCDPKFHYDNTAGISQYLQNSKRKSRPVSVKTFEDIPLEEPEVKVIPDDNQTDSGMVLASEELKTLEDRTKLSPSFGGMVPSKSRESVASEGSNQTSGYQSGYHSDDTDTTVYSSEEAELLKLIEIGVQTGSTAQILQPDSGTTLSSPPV

| Compound | IC50 (KDR (h) (VEGFR2)) [µM] | BAF3-FLT3 (MIN IL3) 96 well pIC50 ([1]; minus IL3) | BAF3-FLT3 (MIN IL3) 384 well pIC50 ([1]; minus IL3) | melting point [°C] | BAF3-KDR (MIN IL3) 96 well pIC50 ([3]; minus IL3) | BAF3-KDR (MIN IL3) 384 well pIC50 ([3]; minus IL3) | BAF3-FLT3 (MIN IL3) 96 well pIC50 ([1]; minus IL3, 96 well) | BAF3-FLT3 (MIN IL3) 384 well pIC50 ([1]; minus IL3, 384 well) | BAF3-KDR (MIN IL3) 384 well pIC50 ([3]; minus IL3, 384 well) | IC50 ([2]; plus 10 ng/ml murine IL3) [µM] | IC50 ([2]; plus IL3, 96 well) [µM] | IC50 [4] [µM] | IC50 [5] [µM] |
| --- | --- | --- | --- | --- | --- | --- | --- | --- | --- | --- | --- | --- | --- |
| COc1cc(OC)cc(N(CCCO)c2ccc3ncc(-c4cnc(OC)nc4)nc3c2)c1 [Compound 141] | > 1 | – | – | – | – | <5 | – | – | – | – | – | > 10 | > 10 |
| COc1cc(OC)cc(N(CC2CC2)c2ccc3ncc(-c4ccncc4)nc3c2)c1 [Compound 89] | 1.91 | – | – | 105 | – | – | <5 | <5 | <5 | – | > 10 | – | – |
| COc1cc(OC)cc(N(CC2CC2)c2ccc3ncc(-c4ccccc4)nc3c2)c1 [Compound 119] | > 1 | – | <5 | 84 | – | <5 | – | – | – | – | – | – | – |

The next lines start with results.

| IC50 (KDR (h) (VEGFR2)) [µM] | BAF3-FLT3 (MIN IL3) 96 well pIC50 ([1]; minus IL3) | BAF3-FLT3 (MIN IL3) 384 well pIC50 ([1]; minus IL3) | melting point [°C] | BAF3-KDR (MIN IL3) 96 well pIC50 ([3]; minus IL3) | BAF3-KDR (MIN IL3) 384 well pIC50 ([3]; minus IL3) | BAF3-FLT3 (MIN IL3) 96 well pIC50 ([1]; minus IL3, 96 well) | BAF3-FLT3 (MIN IL3) 384 well pIC50 ([1]; minus IL3, 384 well) | BAF3-KDR (MIN IL3) 384 well pIC50 ([3]; minus IL3, 384 well) | Compound | IC50 ([2]; plus 10 ng/ml murine IL3) [µM] | IC50 ([2]; plus IL3, 96 well) [µM] | IC50 [4] [µM] | IC50 [5] [µM] |
| --- | --- | --- | --- | --- | --- | --- | --- | --- | --- | --- | --- | --- | --- |
| 2.14 | <5 | <5 | 185 | <5 | <5 | – | – | – | COc1cc(OC)cc(N(CC2CC2)c2ccc3ncc(-c4ccc(N)nc4)nc3c2)c1 [Compound 94] | > 10 | – | – | – |
| > 10 | – | – | 116 | – | – | <5 | <5 | <5 | COc1cc(OC)cc(N(CC2CC2)c2ccc3ncc(-c4ccc(OC)nc4)nc3c2)c1 [Compound 91] | – | > 10 | – | – |
